Results as given in PubChem BioAssay (NCI).
Where “and” joins values, the source holds several entries; their conditions need not be identical. Identical values can stand only once.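 These data come from cells grown in 96-well plates and exposed to compound for 48 hours at five concentrations. Here, GI50 denotes the concentration required for 50% inhibition of growth. TGI: concentration producing complete growth inhibition.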

The compounds below were run on MDA-MB-468 breast (assay: growth of human tumour cells (NCI), 48 h).

| SMILES | GI50 | TGI |
| --- | --- | --- |
| CS(=O)(=O)Nc1ccc(Nc2c3ccccc3nc3cc(Cl)ccc23)cc1 | 1990 nM | 9880 nM |
| COc1cc2c(cc1OCCCN1CCN(CCCn3c4ccccc4c4ccccc43)CC1)N=C[C@@H]1CCCN1C2=O | 23.8 nM | 67.7 nM |
| CC(=O)Nc1ccc(C(=O)COc2cccc(/C=C3\CCc4ccccc4C3=O)c2)cc1 | 3630 nM | > 100000 nM |
| COc1ccc(S(=O)(=O)NCCCNc2nccc(-c3c(-c4ccc(F)cc4)nc4sccn34)n2)cc1 | 4300 nM | > 100000 nM |
| OCCn1c(-c2ccncc2)c(-c2ccc(F)cc2)c2ncccc21 | > 25000 nM | > 25000 nM |
| COc1cc(/C=N/n2cnc3oc(-c4ccccc4)cc3c2=N)cc(CN2CCCCC2)c1O | 1800 nM | 3650 nM |
| CN(C)C(=O)c1cc2cnc(Nc3ccc(N4CCNCC4)cn3)nc2n1C1CCCC1 | 13500 nM | 37600 nM |
| Cc1c(-c2ccc(N3CCc4cccc(C(=O)Nc5nc6ccccc6s5)c4C3)nc2C(=O)O)cnn1CC12CC3CC(CC(C3)C1)C2 | 6580 nM | 26500 nM |
| O=C(Nc1cccc(C(F)(F)F)c1)Nc1cc(S(=O)(=O)NC2CC2)ccc1-c1ccsc1 | 3100 nM | 13800 nM |
| C/C=C\C(=O)O[C@@H]1CC2O[C@@H]3C=C(C)C(=O)C[C@]3(C)[C@]1(C)[C@]21CO1 | 567 nM | 2130 nM |
| COc1cc2nccc(Oc3ccc(NC(=O)C4(C(=O)Nc5ccc(F)cc5)CC4)cc3)c2cc1OC | > 10000 nM and 4350 nM | > 10000 nM and 64500 nM |
| CN1CCN(Cc2ccc(NC(=O)c3cncc(C#Cc4cnc5ccc(NCCCO)nn45)c3)cc2C(F)(F)F)CC1 | 87 nM | 228 nM |
| CCNc1nc(-c2ccc(Cl)c(OC)c2)c(-c2ccnc(NCCNS(=O)(=O)c3ccc(Cl)cc3)n2)s1 | 1960 nM | 5610 nM |
| CCc1c[nH]c2ncnc(N3CC[C@](N)(CNC(=O)c4ccc(F)cc4F)C3)c12 | 139 nM | 2230 nM |
| COc1cc(/C=C/C(=O)c2c(-c3ccc(Cl)cc3)nc3sc(C)nn23)cc(OC)c1OC | 6470 nM | > 100000 nM |
| COc1ccc(C[C@H](N)C(=O)N[C@@H]2[C@@H](CO)OC(n3cnc4c(N(C)C)ncnc43)[C@@H]2O)cc1 (some centres undefined) | 134 nM | 678 nM |
| O=C1C(=O)c2c(ccc3ccccc23)-c2ccccc21 | 1560 nM | 3260 nM |
| O=C(COC(=O)[C@H](C[Se][Se]C[C@H](NC(=O)c1ccc(Br)cc1F)C(=O)OCC(=O)c1ccc(F)cc1)NC(=O)c1ccc(Br)cc1F)c1ccc(F)cc1 | 580 nM | 1680 nM |
| Fc1ccc(-c2cc3nc(C(Cl)Cl)nc(-c4ccc(F)cc4)n3n2)cc1 | 242 nM | 1080 nM |

| SMILES | GI50 | TGI |
| --- | --- | --- |
| CN1CCN(Cc2ccc(NC(=O)c3cncc(C#Cc4cnc5cccnn45)c3)cc2C(F)(F)F)CC1 | 1970 nM | 8220 nM |
| Cc1cc(N(CCCl)CCCl)ccc1/C=N\NC(=O)c1cccnc1 | 1460 nM | 5410 nM |
| CCC(=C(c1ccc(OCCN(CC)CC)cc1)c1ccc(OCCN(CC)CC)cc1)c1ccc(Cl)cc1 | 535 nM | 1050 nM |
| Oc1ccc(/C=N/Nc2nnc(N/N=C/c3ccc(O)cc3O)c3ccccc23)c(O)c1 | 355 nM | 1770 nM |
| c1csc(-c2[nH]nc3c2CCc2ccccc2-3)c1 | 175 nM | 494 nM |
| O=C(c1ccccc1)c1ccc(N2C(=O)C3C4c5ccccc5C(/C=C/C(=O)c5ccccn5)(c5ccccc54)C3C2=O)cc1 (centres undefined) | 2390 nM | 6990 nM |
| Cn1c(=O)c(Oc2ccc(F)cc2F)cc2cnc(NC3CCC(O)CC3)nc21 (centres undefined) | > 25000 nM | > 25000 nM |
| CCn1c(SC)nnc1-c1cc2c([nH]c3ccccc32)c(-c2cccc(O)c2)n1 | 598 nM | 8220 nM |
| O=C1COc2c(CCNCCN(C(=O)CCNCCc3ccc(Cl)c(Cl)c3)C3CCCCC3)ccc(O)c2N1 | 2770 nM | 9420 nM |
| COc1cc(-c2nn(-c3cccc(NC(=O)c4cccc(C(F)(F)F)c4)c3)cc2-c2ccncc2)ccc1Cl | 1320 nM | 4560 nM |
| COc1ccc(Cl)cc1Nc1nc(C(F)(F)F)ccc1C(=O)N/N=C/c1ccc(Cl)cc1 | 3960 nM | > 100000 nM |
| CC(=O)OC1CCC2(C)C(=CCC3C4CC(CN5CC5)C(=O)C4(C)CCC32)C1 (centres undefined) | 1680 nM | 4490 nM |
| Nc1ccc(N)c2c1C(=O)c1cccc([N+](=O)[O-])c1C2=O | 3410 nM | > 56800 nM |
| C/C(=N\NC(=O)c1ccncc1)c1ccccc1O | 2040 nM | 9060 nM |
| Cc1cccc(Cc2cnc(NC(=O)CCCOc3ccc(Cl)cc3)s2)c1 | 1740 nM | > 100000 nM |
| O=C(NCc1cccnc1)c1ccc([N+](=O)[O-])o1 | 5310 nM | > 29000 nM |
| CC[C@@H](CO)Nc1ccc2ncc(C#Cc3cncc(C(=O)Nc4ccc(CN5CCN(C)CC5)c(C(F)(F)F)c4)c3)n2n1 | 77.9 nM | 194 nM |
| O=C(Nc1cccc(C(F)(F)F)c1)Nc1ccc(OCc2nnc(-c3ccccc3)o2)c(F)c1 | 2570 nM | 13900 nM |
